# Test results: patent US8461160B2, “Dihydropyrimidinones” (Hoffmann-La Roche, Inc., priority 2009, dated 2013)
# Target: T1, BACE2 (Homo sapiens, UniProt Q9Y5Z0)
# T1 construct: BACE2 enzyme ectodomain (derived from plasmid “pET17b-T7-hu proBACE2”) was prepared as described in Ostermann et al; T7 tag (N); made in house
# T1 sequence (Q9Y5Z0 21-473 limits assumed): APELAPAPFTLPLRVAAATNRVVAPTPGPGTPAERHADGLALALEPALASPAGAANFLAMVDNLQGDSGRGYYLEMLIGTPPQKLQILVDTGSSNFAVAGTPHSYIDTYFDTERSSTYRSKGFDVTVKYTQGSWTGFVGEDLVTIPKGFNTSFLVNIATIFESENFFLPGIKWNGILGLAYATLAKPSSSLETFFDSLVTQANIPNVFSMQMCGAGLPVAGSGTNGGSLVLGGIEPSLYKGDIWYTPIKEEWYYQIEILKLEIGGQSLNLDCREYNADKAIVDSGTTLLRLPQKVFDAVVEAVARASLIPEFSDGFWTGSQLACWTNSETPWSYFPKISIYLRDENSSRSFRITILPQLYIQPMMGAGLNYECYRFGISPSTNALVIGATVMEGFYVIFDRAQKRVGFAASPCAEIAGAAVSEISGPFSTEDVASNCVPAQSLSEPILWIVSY
# Experiment: Fluorescent-peptide cleavage assay for BACE2 inhibition
# Type: biochemical
# Details: BACE2 enzyme ectodomain, fluorescent peptide WS EVNLD AEFRC-MR121, assay buffer pH 4.5, room temperature
# Description: Fluorescent-Peptide Cleavage Assay for BACE2 Inhibition
# The pro-enzyme was stored at 4° C. at a concentration of 70 μg/ml.
# A fluorescent peptide with the amino acid sequence WS EVNLD AEFRC-MR121 was synthesised and a stock solution of 1.5 mM in DMSO prepared and stored at −20° C. MR121 is a fluorophore with an excitation wavelength of 630 nm and emission wavelength of 695 nm. The MR121 fluorescence is quenched by the N-terminal tryptophan until the peptide is cleaved by BACE2.
# Assays were all made in a Corning 384-well black polystyrene non-binding surface microtitre plate with clear flat bottom and using a Plate:Vision (Perkin Elmer) fluorescence reader. To perform the assay an 80 nM solution of BACE2 was prepared in assay buffer (assay buffer is 100 mM Na-acetate; 20 mM EDTA; 0.05% BSA; pH 4.5) and incubated at room temperature for 1 hour to activate the enzyme. 39 μl of the activated BACE2 was placed in each assay well, followed by 1 μl compound to be tested at an appropriate concentration in 100% DMSO. The plate was then mixed and incubated for 10 minutes at room temperature.
# The assay readout is the rate of change of fluorescence intensity giving a relative measure of BACE2 activity. Small values correspond to high inhibition and larger values to low inhibition. […] IC50 values were determined using these assay values generated for a range of inhibitor concentrations and the curve fitting software XLfit (IDBS) using the Sigmoidal Dose-Response Model.
row,IC50,SMILES
1,2.1 µM,"CN1C(=O)C[C@@](C)(c2cccc(NC(=O)c3ccccc3-c3ncc[nH]3)c2)N=C1N [Example 80, N-[3-((S)-2-Amino-1,4-dimethyl-6-oxo-1,4,5,6-tetrahydro-pyrimidin-4-yl)-phenyl]-2-(1H-imidazol-2-yl)-benzamide]"
2,0.009 µM,"Cc1nc(C(=O)Nc2cccc([C@]3(C)CC(=O)N(C)C(N)=N3)c2)co1 [Example 38, 2-Methyl-oxazole-4-carboxylic acid [3-((S)-2-amino-1,4-dimethyl-6-oxo-1,4,5,6-tetrahydro-pyrimidin-4-yl)-phenyl]-amide]"
3,0.06 µM,"CN1C(=O)C[C@@](C)(c2cccc(NC(=O)c3ccc(OCC(F)(F)F)cn3)c2)N=C1N [Example 63, 5-(2,2,2-Trifluoro-ethoxy)-pyridine-2-carboxylic acid [3-((S)-2-amino-1,4-dimethyl-6-oxo-1,4,5,6-tetrahydro-pyrimidin-4-yl)-phenyl]-amide]"
4,0.007 µM,"CN1C(=N)N[C@](C)(c2cc(NC(=O)c3ccc(Cl)cn3)ccc2F)CC1=O [Example 45, 5-Chloro-pyridine-2-carboxylic acid [3-((S)-2-amino-1,4-dimethyl-6-oxo-1,4,5,6-tetrahydro-pyrimidin-4-yl)-4-fluoro-phenyl]amide]"
5,0.087 µM,"CC[C@@]1(c2cccc(NC(=O)c3ncccc3Cl)c2)CC(=O)N(C)C(N)=N1 [Example 43, 3-Chloro-pyridine-2-carboxylic acid [3-((S)-2-amino-4-ethyl-1-methyl-6-oxo-1,4,5,6-tetrahydro-pyrimidin-4-yl)-phenyl]-amide]"
6,0.04 µM,"CCc1ccc(C(=O)Nc2cccc([C@]3(C)CC(=O)N(C)C(N)=N3)c2)nc1 [Example 83, 5-Ethyl-pyridine-2-carboxylic acid [3-((S)-2-amino-1,4-dimethyl-6-oxo-1,4,5,6-tetrahydro-pyrimidin-4-yl)-phenyl]-amide]"
7,0.349 µM,"CCCOc1cccnc1C(=O)Nc1cccc([C@]2(C)CC(=O)N(C)C(N)=N2)c1 [Example 55, 3-Propoxy-pyridine-2-carboxylic acid [3-((S)-2-amino-1,4-dimethyl-6-oxo-1,4,5,6-tetrahydro-pyrimidin-4-yl)-phenyl]-amide]"
8,0.079 µM,"CCOc1cc(C(F)(F)F)cnc1C(=O)Nc1cccc([C@]2(C)CC(=O)N(C)C(N)=N2)c1 [Example 74, 3-Ethoxy-5-trifluoromethyl-pyridine-2-carboxylic acid [3-((S)-2-amino-1,4-dimethyl-6-oxo-1,4,5,6-tetrahydro-pyrimidin-4-yl)-phenyl]-amide]"
9,0.024 µM,"CC[C@H]1C(=O)N(C)C(N)=N[C@]1(C)c1cccc(NC(=O)c2ccc(Cl)cn2)c1 [Example 92, 5-Chloro-pyridine-2-carboxylic acid [3-((4S,5R)-2-amino-5-ethyl-1,4-dimethyl-6-oxo-1,4,5,6-tetrahydro-pyrimidin-4-yl)-phenyl]-amide]"
10,0.043 µM,"CN1C(=O)C(C)(C)[C@@](C)(c2cc(NC(=O)c3ccc(F)cn3)ccc2F)N=C1N [Example 114, 5-Fluoro-pyridine-2-carboxylic acid [3-((S)-2-amino-1,4,5,5-tetramethyl-6-oxo-1,4,5,6-tetrahydro-pyrimidin-4-yl)-4-fluoro-phenyl]amide]"
11,0.126 µM,"Cc1cc(C(=O)Nc2cccc([C@]3(C)CC(=O)N(C)C(N)=N3)c2)n(C)n1 [Example 8, 2,5-Dimethyl-2H-pyrazole-3-carboxylic acid [3-((S)-2-amino-1,4-dimethyl-6-oxo-1,4,5,6-tetrahydro-pyrimidin-4-yl)-phenyl]amide]"
12,0.008 µM,"CN1C(=O)C[C@@](C)(c2cc(NC(=O)c3ccccn3)ccc2F)N=C1N [Example 47, Pyridine-2-carboxylic acid [3-((S)-2-amino-1,4-dimethyl-6-oxo-1,4,5,6-tetrahydro-pyrimidin-4-yl)-4-fluoro-phenyl]amide]"
13,0.011 µM,"CN1C(=O)C[C@@](C)(c2cncc(NC(=O)c3ccc(Cl)cn3)c2)N=C1N [Example 52, 5-Chloro-pyridine-2-carboxylic acid [5-((S)-2-amino-1,4-dimethyl-6-oxo-1,4,5,6-tetrahydro-pyrimidin-4-yl)-pyridin-3-yl]-amide]"
